We go through one molecule from patent US20150017092A1, “DEVICES AND METHODS FOR DETERMINING SENSITIVITY TO RADIATION” (The Regents of the University of California, priority 2012, published 2015).

In one test the test system is MCF10A. The experiment in a line: 53BP1 radiation induced foci (RIF) time response in MCF10A exposed to X-rays under ATM inhibition, fitted with Eq. 1. Type of test: cell-based, human. The conditions noted are these: for T1/2_1 (RIF induction half-life): 10 μM inhibitor; for α, RIF/Gy (absolute RIF yield): 10 μM inhibitor from 1 h pre-IR, one experiment. The source says: To test the validity of the mathematical model further, we perturbed the rates of RIF formation or RIF removal by inhibiting ataxia telangiectasia mutated (ATM) kinase activity with KU55933 (see Materials and Methods).
The cells were fixed for immunofluorescence at specific intervals after exposure to X-rays. We typically refer to “low dose” or “high dose” as doses below or equal to 0.1 Gy or larger than 1 Gy, respectively. For high-LET IR, cells were irradiated at the accelerator beam line of the National Aeronautics and Space Administration Space […] Laboratory at Brookhaven National Laboratory.
We are only briefly describing these procedures. For complete information, see Supplemental Information Materials and Methods. Immunostaining using anti-53BP1 (rabbit polyclonal, Bethyl Laboratories A300-272A) was performed according to previous staining protocol (Costes et al. (2006) Radiat. Res. 165: 505-515). For image acquisition, both live and fixed MCF10A were imaged using a Zeiss plan-apochromat 40× dry objective (N.A. of 0.95) at a fixed exposure time. Nondeconvolved 3D stacks were acquired and used for image analysis (10 slices of 0.5-μm steps for fixed cells and 3 slices of 1-μm step for live cells). All image manipulations, foci analysis, and statistics were done with Matlab (MathWorks, Inc.) and DIPimage (image processing toolbox for Matlab, Delft University of Technology). In contrast to previous intensity-based methods for RIF identification (Bocker and Iliakis (2006) Radiat. Res. 165: 113-124), we used a pattern recognition approach to detect RIF by applying a wavelet morphological filter to enhance RIF peaks in the image while reducing noise from nonspecific signals (Olivo-Marin (2002) Pattern Recognition 35: 1989-1996). Nuclear space occupied by RIF was identified by applying a constant threshold on the wavelet filtered image, and watershed algorithm was used to separate touching RIF. To test if focus size could affect the accuracy of automatic RIF detection, we applied the software on simulated data where foci sizes and densities had different values (i.e., 1 to 40 foci/nucleus were simulated with four distinct sizes: 0.1, 0.4, 1.3, and 2.4 μm^3; FIG. 17). […] Finally, in order to extract the number of “real” RIF from the number of background foci in each scored nucleus, we introduced a background subtraction method that assumes the measured RIF distribution is the result of a convolution between the “real” RIF distribution and the background foci distribution (FIG. 18). For quantification of RIF in live cells, we counted both the cumulative and instantaneous number of RIF manually in 3D time-lapse images. Time interval varied between experiments and was generally set to 10-min interval for the first hour, followed by 30-min interval afterwards. This setting was optimum to minimize phototoxicity and specimen bleaching. Because of the difficulty of software to track individual foci in successive time lapse, analysis had to be done manually in a blind manner on processed images.
In order to interpret RIF kinetics in an unbiased manner, we introduce a simple mathematical model describing RIF formation where one DSB is detected at a rate k leading to one RIF, and one RIF is resolved after repair at a rate k2, assuming both processes are irreversible. This model can be noted as follows:
where α is the number of naked DSB/Gy before formation of RIF and D is the dose delivered to the cell. Alpha (α) should be constant for all doses. Further details are provided in the supporting information materials and methods regarding the way Eq. 1 is fitted.

The target in test [1] is T1, ataxia telangiectasia mutated (ATM) kinase (Homo sapiens, UniProt Q13315).
T1 construct: endogenous in cells; host or cells: MCF10A (human mammary epithelial cells, ATCC)
T1 sequence (Q13315 whole entry, change not shown): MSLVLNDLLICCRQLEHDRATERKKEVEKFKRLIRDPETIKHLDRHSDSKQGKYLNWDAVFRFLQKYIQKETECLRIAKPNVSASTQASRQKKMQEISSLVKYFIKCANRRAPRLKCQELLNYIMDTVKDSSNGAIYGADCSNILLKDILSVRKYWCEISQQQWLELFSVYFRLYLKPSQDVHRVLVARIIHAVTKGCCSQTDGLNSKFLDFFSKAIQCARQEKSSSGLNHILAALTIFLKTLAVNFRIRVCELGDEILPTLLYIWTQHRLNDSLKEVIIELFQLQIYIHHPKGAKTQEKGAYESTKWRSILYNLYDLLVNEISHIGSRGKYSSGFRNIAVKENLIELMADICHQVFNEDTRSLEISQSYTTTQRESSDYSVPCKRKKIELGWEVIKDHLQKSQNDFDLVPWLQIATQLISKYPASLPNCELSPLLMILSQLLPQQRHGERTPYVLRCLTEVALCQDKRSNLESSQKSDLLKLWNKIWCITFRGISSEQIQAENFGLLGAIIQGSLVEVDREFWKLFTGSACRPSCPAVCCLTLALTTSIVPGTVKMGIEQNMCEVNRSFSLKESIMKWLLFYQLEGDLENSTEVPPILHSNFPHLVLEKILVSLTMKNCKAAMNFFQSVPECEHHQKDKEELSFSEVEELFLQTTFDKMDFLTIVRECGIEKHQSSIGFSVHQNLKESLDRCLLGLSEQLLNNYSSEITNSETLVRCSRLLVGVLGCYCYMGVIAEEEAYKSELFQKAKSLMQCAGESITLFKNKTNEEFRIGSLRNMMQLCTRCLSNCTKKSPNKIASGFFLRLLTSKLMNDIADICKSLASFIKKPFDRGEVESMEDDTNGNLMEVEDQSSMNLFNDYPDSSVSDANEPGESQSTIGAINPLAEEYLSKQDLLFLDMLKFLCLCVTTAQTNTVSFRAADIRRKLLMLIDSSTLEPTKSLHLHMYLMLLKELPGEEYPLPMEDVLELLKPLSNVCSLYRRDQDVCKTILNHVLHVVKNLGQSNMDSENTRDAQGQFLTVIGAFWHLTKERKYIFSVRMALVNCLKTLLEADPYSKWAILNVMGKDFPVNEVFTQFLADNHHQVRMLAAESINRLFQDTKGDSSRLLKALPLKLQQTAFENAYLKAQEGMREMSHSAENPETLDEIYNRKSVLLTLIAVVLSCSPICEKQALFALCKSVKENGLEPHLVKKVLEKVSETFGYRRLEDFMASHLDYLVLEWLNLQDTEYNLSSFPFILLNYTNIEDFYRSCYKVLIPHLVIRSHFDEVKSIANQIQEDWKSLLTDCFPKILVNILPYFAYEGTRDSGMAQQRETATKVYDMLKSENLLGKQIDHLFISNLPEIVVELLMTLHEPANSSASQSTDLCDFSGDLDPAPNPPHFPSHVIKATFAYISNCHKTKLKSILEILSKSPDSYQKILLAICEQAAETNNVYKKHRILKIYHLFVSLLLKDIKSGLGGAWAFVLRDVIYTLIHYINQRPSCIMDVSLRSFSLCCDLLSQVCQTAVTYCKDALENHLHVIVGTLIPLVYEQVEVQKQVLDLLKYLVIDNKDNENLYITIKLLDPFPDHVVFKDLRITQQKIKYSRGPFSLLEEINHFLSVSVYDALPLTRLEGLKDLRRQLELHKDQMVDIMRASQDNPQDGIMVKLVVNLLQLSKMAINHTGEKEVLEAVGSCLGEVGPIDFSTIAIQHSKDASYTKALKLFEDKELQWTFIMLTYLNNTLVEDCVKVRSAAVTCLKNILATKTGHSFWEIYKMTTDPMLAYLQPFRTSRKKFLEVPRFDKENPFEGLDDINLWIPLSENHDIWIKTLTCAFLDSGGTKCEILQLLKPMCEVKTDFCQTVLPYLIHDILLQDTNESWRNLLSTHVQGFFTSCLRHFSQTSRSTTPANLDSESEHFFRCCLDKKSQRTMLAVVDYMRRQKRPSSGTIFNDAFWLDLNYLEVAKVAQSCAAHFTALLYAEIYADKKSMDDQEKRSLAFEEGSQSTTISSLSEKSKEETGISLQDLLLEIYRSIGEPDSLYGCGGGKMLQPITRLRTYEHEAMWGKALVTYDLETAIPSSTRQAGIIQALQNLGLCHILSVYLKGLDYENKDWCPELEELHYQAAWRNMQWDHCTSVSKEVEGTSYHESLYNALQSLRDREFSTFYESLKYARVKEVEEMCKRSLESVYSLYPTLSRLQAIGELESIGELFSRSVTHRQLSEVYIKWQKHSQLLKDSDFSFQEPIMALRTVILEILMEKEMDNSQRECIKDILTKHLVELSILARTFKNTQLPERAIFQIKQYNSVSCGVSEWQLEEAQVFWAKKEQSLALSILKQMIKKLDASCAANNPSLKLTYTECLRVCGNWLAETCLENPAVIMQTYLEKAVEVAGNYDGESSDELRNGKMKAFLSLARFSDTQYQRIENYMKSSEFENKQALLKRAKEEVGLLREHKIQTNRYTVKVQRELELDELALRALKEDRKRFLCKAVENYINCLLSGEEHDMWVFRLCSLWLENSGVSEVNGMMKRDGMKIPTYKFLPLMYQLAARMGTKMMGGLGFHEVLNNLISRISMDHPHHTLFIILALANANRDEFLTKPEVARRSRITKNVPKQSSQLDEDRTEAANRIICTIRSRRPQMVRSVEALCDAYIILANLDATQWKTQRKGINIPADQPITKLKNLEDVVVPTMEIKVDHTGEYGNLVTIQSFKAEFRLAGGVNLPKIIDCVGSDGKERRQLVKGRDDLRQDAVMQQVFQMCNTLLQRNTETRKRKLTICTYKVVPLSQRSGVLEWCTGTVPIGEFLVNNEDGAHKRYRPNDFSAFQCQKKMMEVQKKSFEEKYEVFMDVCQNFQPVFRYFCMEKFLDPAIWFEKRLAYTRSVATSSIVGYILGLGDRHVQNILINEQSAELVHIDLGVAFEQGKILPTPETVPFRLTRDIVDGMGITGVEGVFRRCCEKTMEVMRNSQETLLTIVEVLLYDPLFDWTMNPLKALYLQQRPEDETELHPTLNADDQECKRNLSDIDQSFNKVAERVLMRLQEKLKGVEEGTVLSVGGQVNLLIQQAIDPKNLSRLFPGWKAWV
Description: Inhibition of ATM measured by Western blot of P53-S15p. Type of test: cell-based. Particulars: 10 μM inhibitor, MCF10A.

As to `O=c1cc(-c2cccc3c2Sc2ccccc2S3)oc(N2CCOCC2)c1` [KU55933], the “T1/2_1 (RIF induction half-life)” value with MCF10A (0.1 Gy X-rays) turned out to be 8.3 min; in the test on MCF10A (0.4 Gy X-rays), 5.9 min; in the test on MCF10A (1 Gy X-rays) it was 4.2 min; in the test on MCF10A (2 Gy X-rays), 2.6 min. Besides, the “α, RIF/Gy (absolute RIF yield)” value with MCF10A (0.1 Gy X-rays) came out at 25±17 RIF/Gy; with MCF10A (0.1 Gy X-rays, listed as ATM inhibition), 25 RIF/Gy; in the test on MCF10A (0.4 Gy X-rays), 25 RIF/Gy; with MCF10A (1 Gy X-rays), 19 RIF/Gy; with MCF10A (2 Gy X-rays) it was 12±2 RIF/Gy; in the test with MCF10A (2 Gy X-rays, listed as ATM inhibition) it was 12 RIF/Gy. Besides, the “detection half-lives with versus without ATM inhibition” value in the test with MCF10A (across all doses) is “comparable”. The figures for the “reduction of α versus normal conditions” value in the test on MCF10A (after 0.1 Gy of X-rays) and in the test on MCF10A (after 2 Gy of X-rays) were 3 fold and “no significant reduction”, respectively. In the test on MCF10A (at high doses), the “RIF resolution with versus without ATM inhibition” value is “significantly slower”. The “drop of RIF yield between 0.1 and 2 Gy” value in the test on MCF10A (under ATM inhibition) is 2 fold. Also, the “overall number of RIF” value in the test with MCF10A (under ATM inhibition versus normal media) is listed as “largely diminished”. In addition, the “phosphorylated p53 at S15” value in test [1] is recorded as “reduction”.
